From a melting point compilation (Tetko et al.; mined from patent text by program, amines drawn as free bases though some values may be those of a salt) come the findings set out here.

What is called melting point is the temperature, or range, at which the solid turns liquid. The compound `CC(=O)c1nc(-c2ccc(C)nc2Cl)[nH]c1C` had a melting point of 156 to 158 °C.

Consider `OCc1cccc2c1CCc1ccsc1-2`, for which the melting point fell in the range of 99 to 100 °C.

`CCOc1cc2ncc(C#N)c(Nc3ccc(OCc4ccccc4)c(Cl)c3)c2cc1NC(=O)CC(CN(C)C)N(C)C` (centres undefined) returned a melting point of 102 to 104 °C.

Regarding `c1ccc2c(c1)CSc1ccccc1C2n1ccnc1` (centres undefined), the melting point was in the range of 162 to 164 °C.

In turn, `CCCC1(c2ccccc2Cl)C(=O)Nc2ccc(OCC)cc21` (centres undefined) returned a melting point of 136 °C.

Compound `O=S1(=O)NC2CCCN2c2ccc(O)cc21` (centres undefined) yielded a melting point of 237 to 242 °C.

For the compound `CNc1nc(-c2cccc(NC(=O)c3cccc(O)c3)c2)c2cc(OC)c(OC)cc2n1`, the melting point lay in the range of 265 to 267 °C.

The compound `COc1ccc2cc(C(=O)c3ccc(C)c(C)c3)oc2c1` came in with a melting point of 95 to 97 °C.

Turning to `CC(=O)Nc1ccc(OC(=O)C2CSC(=O)N2)cc1` (centres undefined), the melting point lay within 204 to 205 °C.

Take `C=CCOc1ccc(NC(=O)CC(C#N)=C(C)O)cc1`: the melting point lay in the range of 162 to 164 °C.

In turn, `CCCCNC(=O)Oc1ccc(Oc2ccc(C)cc2)cc1` displayed a melting point of 64 to 66 °C.

With `O=C1c2ccccc2C(=O)N1Cc1cnc2n1-c1ccc(Cl)cc1C(c1ccccc1Cl)=NC2`, the melting point was in the range of 218 to 220 °C.

`O=S(=O)(c1ccc(Br)cc1)N1CCC1`: the melting point turned out to be 145 °C.

`Cc1cc(-c2ccc(Cl)cc2)cn2c(C(=O)O)cnc12` returned a melting point of 228 °C.

On to `Nc1ccccc1C(=O)NCCCn1ccnc1`, for which the melting point lay in the range of 107 to 110 °C.

In turn, `CCCN(CCC)C1Cc2c[nH]c3ccc(C(C)=O)c(c23)C1` (centres undefined) gave a melting point of 148 to 150 °C.

`Cc1ccc(NC(=S)NCc2ccc3c(c2)CN(C2CCC(=O)NC2=O)C3=O)cc1Cl` (centres undefined) came in with a melting point of 240 to 242 °C.

As for `COc1ccc2[nH]c3c(c4c(c5c6cc(OC)ccc6n(C)c35)C(=O)N(C)C4=O)c2c1`, the melting point was above 330 °C.

In turn, `CCCCc1oc2ccccc2c1C(=O)c1ccc(OCCBr)cc1` returned a melting point of 46 to 47 °C.

In turn, `CCOC(=O)c1c[nH]c2c(C#N)c(CCCNC)nn2c1=O` came in with a melting point of 285 to 287 °C.

In turn, `OC1(CSc2ccc(-c3ccccc3)cc2)CN2CCC1CC2` (centres undefined) came in with a melting point of 145 to 147 °C.

As to `Oc1cc2c3ccc(O)c(O)c3n(Cc3ccccc3)c2cc1O`, the melting point fell in the range of 241 to 246 °C.

As to `Cc1[nH]c2ncnc(Nc3cccc(Br)c3)c2c1C`, the melting point fell in the range of 243 to 244 °C.

In turn, `CC(C)(C)OC(=O)NC1CCCCCC=CC2CC2(C(=O)NS(=O)(=O)C2CC2)NC(=O)C2CC(OC(=O)c3ccc(C#N)cc3)CN2C1=O` (centres undefined) came in with a melting point of 164 to 166 °C.

Compound `CN(C)C1CCC(Nc2nc3cc(Cl)c(Cl)cc3nc2-c2ccncc2)CC1` (centres undefined) came in with a melting point of 183 to 185 °C.

Compound `Cc1ccccc1OCC(O)CNCCCOc1ccccc1` (centres undefined) came in with a melting point of 73 to 74 °C.

On to `Cn1c(-c2ccccc2)cc(=O)c2cc(C(=O)O)ccc21`, for which the melting point is above 30 °C.

In the case of `CC(C)Oc1cccc(NC(=O)OC(C)(C)C)c1`, the melting point was 79 to 81 °C.

On to `CS(=O)(=O)c1ccc(/C(=C\C2CCCCC2)C(=O)O)cc1C(F)(F)F`, for which the melting point lay within 62 to 64 °C.

For `Fc1ccccc1Cn1cnc2c(Nn3ccc4ccccc43)ncnc21`, the melting point lay within 236 to 238 °C.

Regarding `Cc1c(C)c2c(c(C)c1N)CC(C)(CN1CCN(C)CC1)O2` (centres undefined), the melting point fell in the range of 76 to 77 °C.

In the case of `CCOC(=S)CC/C(C)=C/Cc1c(O)c2c(c(C)c1OC)COC2=O`, the melting point fell in the range of 63 to 67 °C.

As to `O=C(O)CCCCCCCCn1nc(-c2ccccc2)c(-c2ccccc2)n1`, the melting point fell in the range of 84 to 85 °C.

`COC(=O)C1(C)Oc2ccc(Cl)cc2C(C)(C)O1` (centres undefined) registered a melting point of 89 °C.

As to `COc1cc(O)c(CN(CCc2ccc([N+](=O)[O-])cc2)C(=O)OC(C)(C)C)c(OC)c1`, the melting point came out at 134 °C.

Turning to `COC(=O)C1=CC=Nc2ccccc2C1`, the melting point is 168 to 173 °C.

Regarding `CC(=O)OC1CSC(Oc2ccc(-c3cccnc3Cl)nc2)C(OC(C)=O)C1OC(C)=O` (centres undefined), the melting point came to 180 °C.

Consider `O=C1C(=Cc2ccncc2)COc2ccccc21`, for which the melting point was 132 °C.

`CCc1nc2c(N)nc3ccccc3c2n1CCS(C)(=O)=O` displayed a melting point of 222 to 225 °C.

`CS(=O)(=O)N1CCC(C=O)CC1` gave a melting point of 97 °C.

In turn, `CNC(=NC#N)NCCSCc1csc(NC(N)=NC(=O)c2ccccc2)n1` gave a melting point of 179 to 181 °C.

In turn, `COc1cccc(CC(=O)O)c1OCCCc1cn(-c2nnc(C(F)(F)F)s2)nc1C(C)C` registered a melting point of 114 to 115 °C.

As for `Cn1ncc(S(=O)Cc2ccccc2)c(Cl)c1=O` (centres undefined), the melting point was 129 to 131 °C.

The compound `Nc1nc2c(s1)CC(NC(=O)CNC(=O)[C@@H](Cc1ccccc1)NS(=O)(=O)Cc1ccccc1)CC2` (some centres undefined) came in with a melting point of 119 to 122 °C.

The compound `COc1ccc2c(c1)C(=O)CC1(CCN(c3cc(=O)n(C)c(=O)n3C)CC1)O2` displayed a melting point of 202 to 203 °C.

As for `CC1(NC(=O)C(F)(F)F)CN(c2cc3c(cc2F)c(=O)c(C(=O)O)cn3-c2ccc(F)cc2)C1`, the melting point was in the range of 146 to 151 °C.

Compound `CCN(CC)C(=O)Oc1cc(-c2ccccn2)nc2ccccc12` displayed a melting point of 100 °C.

As for `CCCCc1nn(-c2cc([N+](=O)[O-])ccc2Cl)c(=O)n1Cc1ccc(-c2cc(CCC)ccc2S(=O)(=O)NC(C)(C)C)cc1F`, the melting point was in the range of 84 to 86 °C.

On to `COc1ccc2nc(NN)nc(-c3ccccc3)c2c1`, for which the melting point was 151 to 152 °C.

`CSc1cccc(Oc2ncc(F)cc2C(=O)N[C@@H]2CCCC[C@@H]2O)c1` (relative stereo) returned a melting point of 99 to 101 °C.

Compound `CCCCCCCCCCCCCC(=O)Nc1ccc(C2=NNC(=O)NC2C)cc1` (centres undefined) returned a melting point of 206 to 209 °C.

As for `CCOCc1nc2c(N)nc3cc(Br)ccc3c2n1CCCCNC(=O)NC(C)C`, the melting point was determined as 211 °C.

Turning to `CC(C)(C)c1ccccc1NC(=O)OCC1(COC(=O)Nc2ccccc2C(C)(C)C)CSc2ccccc2C1=O`, the melting point was 62 to 68 °C.

For the compound `COC(=O)[C@@H]1C(=O)c2cc(OCc3ccccc3)ccc2[C@H]1c1ccc2c(c1)OCO2` (racemic), the melting point is 148 to 150 °C.

`CN1CCN2c3ccccc3C(O)c3ccccc3C2C1` (centres undefined) registered a melting point of 137 to 138 °C.

In turn, `Cc1oc(-c2ccccc2)nc1CCC(=O)c1ccc(CCC2OCCO2)cc1` registered a melting point of 89 to 90 °C.

The compound `Cc1cc(-c2[nH]c3ccc(N)cc3c2C)cc(C)c1O` yielded a melting point of 184 to 185 °C.

`O=C(Nc1ccccn1)Nc1cnns1` displayed a melting point of 227 °C.

In turn, `COc1cc2ncnc(N3CCc4c(C)cccc43)c2cc1OC` gave a melting point of 174 to 175 °C.

The compound `Cc1nc2ccc(CCc3ccccc3)cn2c1CC#N` displayed a melting point of 139 to 141 °C.

`CNC(=NCCSCc1[nH]cnc1C)NS(C)(=O)=O` registered a melting point of 133 to 134 °C.

For `O=C(Nc1nc(CN2CCC(c3c[nH]c4ccccc34)CC2)cs1)C1CC1`, the melting point fell in the range of 120 to 132 °C.

`COC(=O)c1ccc(OCCNC(=O)C2Cc3ccccc3N2S(=O)(=O)c2ccc(-c3ccc(F)cc3)cc2)cc1C(F)(F)F` (centres undefined) gave a melting point of 62 to 70 °C.

In turn, `COc1ccc(-c2cc(O)n3nccc3n2)cc1OC` returned a melting point of 268 to 270 °C.

In the case of `O=C(O)C1CCc2c(c3cc(F)ccc3n2C(=O)c2ccc(F)cc2)C1` (centres undefined), the melting point was in the range of 195 to 196 °C.

Compound `COCCSc1ccccc1S(N)(=O)=O` returned a melting point of 127 to 130 °C.

On to `COCOc1cc(OC)c(OC)cc1-c1c(C(=O)OC)[nH]c(C(=O)OC)c1-c1ccc(OC)c(OC)c1`, for which the melting point was in the range of 162 to 163 °C.

For the compound `COc1ccccc1C(=O)c1cc([N+](=O)[O-])ccc1SC`, the melting point lay in the range of 119 to 122 °C.

With `CCCCn1nnc2cc(C(O)c3ccsc3)ccc21` (centres undefined), the melting point came out at 80 °C.

`CC(C)c1cccc(C(C)C)c1NC(=O)CN1CCN(CCSc2nc3cccc(S(C)=O)c3o2)CC1` (centres undefined) showed a melting point of 119 to 120 °C.

The compound `Cc1nc(NC(=O)NC(C)(C)C)ccc1-c1ccncc1` displayed a melting point of 297 to 300 °C.

`CC(C)n1nc(-c2sc(N)nc2-c2ccccc2F)ccc1=O` gave a melting point of 233 to 235 °C.

With `OC(c1ccccc1)c1ccc2c(c1)N1CCN=C1S2` (centres undefined), the melting point was determined as 175 °C.

Compound `COC(N)=CC(=NC#N)OC` displayed a melting point of 116 to 121 °C.

With `CCCCc1nnc(SCc2ccc(Cl)cc2)n1Cc1ccc(-c2ccccc2-c2nnn[nH]2)cc1`, the melting point was 92 to 93 °C.

In turn, `COc1cc(CCC#N)c(Br)cc1OCc1ccccc1` displayed a melting point of 52 to 53 °C.

For `COc1ccc2[nH]c(C(=O)C3(c4ccc(Cl)cc4)CCCC3)cc2c1`, the melting point lay within 157 to 159 °C.

Regarding `NS(=O)(=O)c1cnc(-c2ccccc2)s1`, the melting point lay in the range of 209 to 210 °C.

The compound `CCC(=O)Oc1cc(OC)cc(OC)c1C(=O)C=Cc1ccc(C)o1` yielded a melting point of 72.5 °C.

`Cc1nc(C)n(-c2cc([C@@H]3C[C@H]3c3nc4ccccc4n3C)nc(C(F)(F)F)n2)n1` (relative stereo) registered a melting point of 151 to 153 °C.

`COc1ccc2c(-c3ccc(C#Cc4ccccc4)cc3)cc(=O)oc2c1`: the melting point fell in the range of 178 to 180 °C.

In the case of `Cc1c(N)noc1C(F)(F)C(F)(F)F`, the melting point was 32 to 34 °C.

Consider `CCOC(=O)CNc1ccc(NS(C)(=O)=O)cc1`, for which the melting point is 135 to 138 °C.

As to `Cc1cc(=O)c(-c2ccc(Cl)c(Cl)c2)c(-c2ccc(S(N)(=O)=O)cc2)o1`, the melting point was 128 °C.

Take `O=C(NC1CCCCC1)NS(=O)(=O)c1ccc2c(c1)CCN(C(=O)N1CCCCC1)CC2`: the melting point was 166 to 167 °C.

In the case of `CCC(=CC(COC(N)=O)=NO)C(C)[N+](=O)[O-]` (centres undefined), the melting point lay in the range of 69 to 72 °C.

`O=C(O)COc1cccc2c1CCC(COC(=O)N(c1ccccc1)c1ccccc1)C2` (centres undefined) yielded a melting point of 137 to 142 °C.

`COC(=O)c1cccc(COc2cccc(OCc3ccc4ccccc4n3)c2)c1` returned a melting point of 93 to 94 °C.

Turning to `COc1cc(C(=O)O)ccc1Cn1ccc2ccc(CC(=O)NCC3CCCC3)cc21`, the melting point fell in the range of 188 to 189 °C.
